The subject of assay [1] is Staphylococcus aureus. Description: Antimicrobial activity against methicillin-resistant Staphylococcus aureus ATCC 43300 assessed as mutant prevention concentration after 48 hrs. The format is functional, organism-based.
The subject of assay [2] is Staphylococcus aureus. Description: Antimicrobial activity against methicillin-resistant Staphylococcus aureus ATCC 6538 assessed as mutant prevention concentration after 48 hrs. The format is functional, organism-based.

Activity calls are given as the source filed them. The calls are words filed in the database; no cut-off is given here.

Consider `O=C(O)c1cn(C2CC2)c2cc(N3CCNCC3)c(F)cc2c1=O`, for which the outcome in assay [1] and in assay [2] was Active.

(Values after ChEMBL document CHEMBL1255357, “Enrichment of fluoroquinolone-resistant Staphylococcus aureus: oscillating ciprofloxacin concentrations simulated at the upper and lower portions of the mutant selection window” (Antimicrob Agents Chemother, 2008).)
